Results reported in patent US20180340156A1, “PURIFICATION OF A SOLUBLE AND ACTIVE FORM OF ASPARTATE N-[…]” (The University of Toledo, priority 2015, published 2018).
“Also recorded” adds a separate entry of the source. Blank lines part the entries; values can stand above or below the molecule they belong to.

Legend:
membrane-bound ANAT = target: T1, membrane-bound ANAT (Homo sapiens, UniProt Q8N9F0); test: Detergent solubilization/extraction of native ANAT from membrane fraction
T1 construct: polyhistidine tag (C); made in house; host or cells: E. coli BL21(DE3), membrane fraction
T1 sequence (Q8N9F0 1-302): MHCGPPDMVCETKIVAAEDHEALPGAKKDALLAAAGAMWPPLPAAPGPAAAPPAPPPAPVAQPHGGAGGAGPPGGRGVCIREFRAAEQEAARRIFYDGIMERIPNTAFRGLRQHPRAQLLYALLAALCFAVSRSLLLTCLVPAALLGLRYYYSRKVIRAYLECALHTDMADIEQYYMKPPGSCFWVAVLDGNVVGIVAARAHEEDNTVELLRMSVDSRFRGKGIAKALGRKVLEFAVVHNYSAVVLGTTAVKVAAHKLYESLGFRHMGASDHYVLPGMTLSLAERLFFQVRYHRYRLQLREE
Experimental: The human nat8l gene was cloned into the pETDEST42 plasmid using the Gateway cloning technology (Life Technologies). This plasmid was used to transform E. coli BL21(DE3) cells for protein production. The cells were grown at 37° C. to an A600 of 0.6-0.8 in Luria-Bertani (LB) medium containing 100 μg/mL ampicillin, and gene expression was then induced with 1 mM isopropyl […] (IPTG) at 28° C. for 5 hours. The cell pellet was resuspended in buffer A [50 mM HEPES, 500 mM NaCl and 10% glycerol (pH 7.4)] and lysed by sonication on ice for 8 min with 30 s pulse on and 2 min pulse off cycle. The cell lysate was centrifuged at 11,000 rpm for 30 minutes to pellet cell debris and unlysed cells. The membrane fraction was collected by high-speed centrifugation of the supernatant at 40,000 rpm for 1 h. Solubilization trials of ANAT from the membrane fraction were conducted with a variety of different detergents that include ionic, non-ionic, and zwitterionic detergents. Twenty microliter aliquots of the resuspended membrane fraction were mixed with different amounts of stock detergent solutions each prepared at 10 times their critical micelle concentration (CMC), leading to a final concentration of 1.5×CMC and […]. These solutions were incubated at room temperature for 1 h or at 4° C. overnight in a rocking platform.

MBP-ANAT fusion enzyme [1] = target: T2, MBP-ANAT fusion enzyme (Homo sapiens, UniProt Q8N9F0); test: DTNB-based ANAT enzyme activity assay, substrate kinetics; type: biochemical; conditions: for catalytic efficiency as alternative substrate relative to physiological substrate: alternative acetyl group acceptor vs L-aspartate; for alternative substrate activity: screen of amino acid library of 160 compounds
T2 construct: the full length ANAT enzyme has been expressed and purified in a fusion construct with MBP; made in house; host or cells: E. coli NiCo21(DE3)
T2 sequence (Q8N9F0 1-302): T1 sequence (Q8N9F0 1-302)
Experimental: (§1) The ANAT activity was measured by an established DTNB-based assay in which the coenzyme A product participates in a thiol exchange reaction with DTNB. This assay is illustrated in FIGS. 4A-4B. The resulting TNB^2− ion was monitored at 412 nm (c=14.15 mM^−1cm^−1) using a SpectraMax 190 spectrophotometer plate reader (Molecular Devices, CA).
(§2) The DTNB-based assay was used to measure the kinetic parameters for the physiological substrates and some alternative ANAT substrates.
The kinetic parameters for the physiological substrates of ANAT were determined using the assay described above by varying the concentrations of both substrates and fitting the data to the equation for a sequential kinetic mechanism (eq. 1). […] A screen for alternative substrates was conducted using a customized amino acid library containing a total of 160 compounds.

[2] = target: ANAT fusion enzyme with GST (Homo sapiens, UniProt Q8N9F0); conditions: L-aspartate as substrate
Experimental: as §1, §2

MBP-ANAT fusion enzyme [3] = target: T2, MBP-ANAT fusion enzyme; test: Effect of detergents on ANAT activity (DTNB-based assay, saturating substrates); type: biochemical; conditions: incubation with detergent at CMC
Experimental: This assay is illustrated in FIGS. 4A-4B.
(§3) The effect of detergent properties on ANAT activity was tested using a variety of different detergents, each at their critical micelle concentration (CMC) levels. All measurements were conducted at least in duplicate by using the DTNB-based assay at saturating substrates levels. The effect of an organic solvent on ANAT activity was also evaluated by varying the DMSO concentration in the assay from 0 to 50%. To test the stability of the purified MBP-ANAT-his construct, the enzyme was stored at 4° C. for several days and activity was monitored daily. To test for the optimal long term storage conditions, the enzyme activity was followed through multiple freeze-thaw cycles between −80° C. and room temperature.

[4] = substrate: CC(=O)SCCNC(=O)CCNC(=O)[C@H](O)C(C)(C)COP(=O)(O)OP(=O)(O)OC[C@H]1O[C@@H](n2cnc3c(N)ncnc32)[C@H](O)[C@@H]1OP(=O)(O)O; test: purified protein, by the assay type; conditions: other: acetyl-CoA as substrate, MBP-ANAT fusion, sequential mechanism fit, pH 7.4
[5] = Enzyme stability on storage at 4° C. and freeze-thaw cycles; type: physicochemical; conditions: stored at 4° C. for several days to one week, assayed daily
Experimental: as §3

extraction efficiency of membrane-bound ANAT (membrane-bound ANAT; non-ionic detergents, 1.5 CMC): highest extraction efficiency
Molecule: CCCCCCCCCCCCOCCOCCOCCOCCOCCOCCOCCOCCO [C12E8]

extraction efficiency of membrane-bound ANAT (membrane-bound ANAT; 8.7 CMC): effective
Molecule: CCCCCCCCCCCCO[C@@H]1O[C@H](CO)[C@@H](O[C@H]2O[C@H](CO)[C@@H](O)[C@H](O)[C@H]2O)[C@H](O)[C@H]1O [DDM]

Km (MBP-ANAT fusion enzyme [1]; L-aspartate as substrate, MBP-ANAT fusion, sequential mechanism fit, pH 7.4): 160 µM
Km [2]: 100 µM
Molecule: N[C@@H](CC(=O)O)C(=O)O [L-aspartate]

catalytic efficiency as alternative substrate relative to physiological substrate (MBP-ANAT fusion enzyme [1]): less than 10%
Molecule: NC(C(=O)O)C(N)C(=O)O (stereo not drawn) [2,3-diaminosuccinate]

loss of catalytic activity (MBP-ANAT fusion enzyme [3]): significant loss of activity
Molecule: CCCCCCCCO[C@@H]1O[C@H](CO)[C@@H](O)[C@H](O)[C@H]1O [octylglucoside]

loss of catalytic activity (MBP-ANAT fusion enzyme [3]): significant loss of activity
extraction efficiency of membrane-bound ANAT (membrane-bound ANAT; 8.7 CMC): effective
Molecule: OC[C@H]1O[C@H](O[C@H]2[C@H](O)[C@@H](O)[C@H](OCCCCCC3CCCCC3)O[C@@H]2CO)[C@H](O)[C@@H](O)[C@@H]1O [Cymal 5]

Continued, molecule first:

Molecule: N[C@@H](CCC(=O)O)C(=O)O [L-glutamate]
catalytic efficiency as alternative substrate relative to physiological substrate (MBP-ANAT fusion enzyme [1]): less than 1%
alternative substrate activity (MBP-ANAT fusion enzyme [1]): profound loss of activity

Molecule: CC(C(=O)O)[C@H](N)C(=O)O (stereo partly drawn) [β-methylaspartate]
alternative substrate activity (MBP-ANAT fusion enzyme [1]): best of these few alternative substrates; also recorded: profound loss of activity

Molecule: CCCCCCCCCCCCOS(=O)(=O)[O-].[Na+] [SDS]
loss of catalytic activity (MBP-ANAT fusion enzyme [3]): nearly complete loss of catalytic activity

Molecule: CCCCCCCCCCCC[N+](C)(C)[O-] [LDAO]
loss of catalytic activity (MBP-ANAT fusion enzyme [3]): nearly complete loss of catalytic activity

B1: MBP-ANAT fusion enzyme (Homo sapiens) (protein)
chain: T1 sequence (Q8N9F0 1-302)
Km [4]: 3.1 µM

B2: native enzyme: human aspartate N-acetyltransferase without the MBP fusion domain (protein, UniProt Q8N9F0 1-302, looked up)
N-acetylaspartate synthetase: T1 sequence (Q8N9F0 1-302)
loss of activity on storage [5]: substantial loss of catalytic activity
